Where two headings read alike, the source gives them in different places.
Key:
[1] = biological target: FXIa; settings: representative FXIa inhibitors, Figure 1; cited from earlier work
[2] = biological target: T1, human FXIa (Homo sapiens, UniProt P03951); experiment: Inhibition of FXIa in vitro (chromogenic substrate assay); type: biochemical
T1 construct: purchased Haematologic Technologies, Essex Junction, VT, USA
Experimental: The negative controlwas composed of the same mixed solutions except replacing test compound with DMSO. […] The IC50 was calculated by IBM SPSS Statistics 22.0 (IBM Inc., North Castle, NY, USA) and the Probit function in it. IC50 values were converted to Ki values by the followingrelationship:Ki = IC50/(1 + [S]/Km)

[3] = system: rabbit plasma; experiment: aPTT in vitro coagulation assay; type: biochemical; settings: incubated 3 min at 37 °C
Experimental: A commercially available automatic Coagulation analyzer (Steellex Science Instrument Co., Ltd., Beijing, China) was employed to measure aPTT. The clotting times were also measured using the instrument itself, in accordance with the manufacturer’s instructions. Increasing concentrations of inhibitor or solvent were added to rabbit (Beijing Longan Experimental Animal Breeding Center, SCXK(Jing)2016-0006, Beijing, China) plasma and incubated for 3 min at 37 °C. APTT was determined by automatic Coagulation analyzer.

[4] = human FXIa, chromogenic substrate BIOPHEN CS-21(66), 37 °C, pH 7.4, Ki = IC50/(1 + [S]/Km), read-out: Ki

T1 sequence (P03951 388-625 limits assumed): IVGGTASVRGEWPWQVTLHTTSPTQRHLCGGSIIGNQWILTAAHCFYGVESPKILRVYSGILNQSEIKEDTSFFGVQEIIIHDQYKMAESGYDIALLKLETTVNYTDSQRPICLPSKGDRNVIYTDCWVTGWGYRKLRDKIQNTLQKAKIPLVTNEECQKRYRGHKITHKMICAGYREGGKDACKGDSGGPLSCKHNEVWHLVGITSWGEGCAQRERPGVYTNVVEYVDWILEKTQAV
T1 sequence (P03951 19-387 partner limits assumed): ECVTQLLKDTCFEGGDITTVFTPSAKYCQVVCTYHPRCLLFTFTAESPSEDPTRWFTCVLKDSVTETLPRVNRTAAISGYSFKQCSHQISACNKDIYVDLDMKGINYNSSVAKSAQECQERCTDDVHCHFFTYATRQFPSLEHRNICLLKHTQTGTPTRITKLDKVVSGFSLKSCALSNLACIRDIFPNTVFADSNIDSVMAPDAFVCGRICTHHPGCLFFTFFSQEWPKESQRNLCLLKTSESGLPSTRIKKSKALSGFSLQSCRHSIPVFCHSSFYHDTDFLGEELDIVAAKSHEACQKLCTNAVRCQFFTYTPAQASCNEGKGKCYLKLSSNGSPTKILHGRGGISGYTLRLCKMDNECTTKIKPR

**Q.** For `COC1CCN(c2cccc3c2CCN(C(=O)c2cc(-c4cccc(Cl)c4)[nH]n2)[C@@H]3C(=O)Nc2ccc(C(=O)O)cc2)CC1` [Compound 2], which Ki [1] is on record?
**A.** 18.4 nM

**Q.** With `NC[C@H]1CC[C@H](C(=O)NC(Cc2ccccc2)c2ncc(-c3ccc4c(N)n[nH]c4c3)[nH]2)CC1` (stereo partly shown) [Compound 4, reference compound] as the molecule, how does the Ki ([2]; Table 1 values, read-out: FXIa inhibitory potency (Ki)) read?
**A.** 23.5 nM

**Q.** What about the Ki [2, 4] of the same molecule?
**A.** 23.5 nM

**Q.** What about the “1.5× aPTT (μM) (Rabbit)” value [3] of the same molecule?
**A.** 3.79 µM

**Q.** With `CC1CC1C(=O)Nc1ccc(C[C@H](NC(=O)c2cc(-c3cccc(Cl)c3F)[nH]n2)C(=O)Nc2ccc3[nH]c(C(=O)O)cc3c2)cc1` (stereo partly drawn) [Compound 7za, 5-((2S)-2-(5-(3-Chloro-2-fluorophenyl)-1H-pyrazole-3-carboxamido)-3-(4-(2-methylcyclopropane-carboxamido)phenyl)propanamido)-1H-indole-2-carboxylic acid] as the molecule, how does the “1.5× aPTT (μM) (Rabbit)” value [3] read?
**A.** 43.33 µM

**Q.** With `O=C(N[C@@H](Cc1ccc(N2CCOCC2=O)cc1)C(=O)Nc1ccc2[nH]c(C(=O)O)cc2c1)c1cc(-c2cccc(Cl)c2F)[nH]n1` [Compound 7zc, (S)-5-(2-(5-(3-Chloro-2-fluorophenyl)-1H-pyrazole-3-carboxamido)-3-(4-(3-oxomorpholino)phenyl)-propanamido)-1H-indole-2-carboxylic acid] as the molecule, how does the melting point read?
**A.** 200 to 202 °C (dec.)

**Q.** And the Ki [2, 4]?
**A.** 4820 nM

From publication PMC6222544, “Fragment-Based Lead Generation of 5-Phenyl-1H-pyrazole-3-carboxamide Derivatives as Leads for Potent Factor Xia Inhibitors” (Molecules : A Journal of Synthetic Chemistry and Natural …, 2018)
